Values joined by “and” are separate entries in the source; they are usually repeats but may differ in a detail not shown here. Equal entries are not always repeated. Where a SMILES comes first, the peptide text is derived from it. [ ]: non-standard residue; d: D form. Hyp = O=C(O)[C@@H]1C[C@@H](O)CN1
Tests used:
TNF-alpha = assay: Example 9 Luminex, LPS hPBMCs: TNF-alpha; type: cell-based, human
Experimental: (§1) Treatment Human PBMCs were pretreated with YY-101, YDE-011 and YDE-043 or reference compound; Xiidra® at various concentration (ranging from 1 nM to 100 uM) for 2 h before stimulation. An equal volume of 0.5% DMSO was used as a vehicle control. Then, the cells were treated with LPS at 5 ug/ml. The supernatants from treated cells were harvested at 24 h and placed in a 96 well for Luminex cytokine & chemokine profiling using a Luminex 200 multiplex assay (Luminex; R&D system, USA).
(§2) The main study arm with triplicate wells per group in a 24-well plate: • 1. Blank • 2. PBMC: 0.5% DMSO • 3. PBMC+LPS (5 ug/ml) • 4. PBMC+YY-101 100 uM • 5. PBMC+YY-101 10 uM • 6. PBMC+YY-101 1 uM • 7. PBMC+YY-101 0.1 uM • 8. PBMC+YY-101 0.01 uM • 9. PBMC+LPS (5 ug/ml)+Xiidra®100 uM • 10. PBMC+LPS (5 ug/ml)+Xiidra® 10 uM • 11. PBMC+LPS (5 ug/ml)+Xiidra® 1 uM • 12. PBMC+LPS (5 ug/ml)+Xiidra®0.1 uM • 13. PBMC+LPS (5 ug/ml)+Xiidra®0.01 uM • 14. PBMC+LPS (5 ug/ml)+Xiidra®0.001 uM • 15. PBMC+LPS (5 ug/ml)+YY-101 100 uM • 16. PBMC+LPS (5 ug/ml)+YY-101 10 uM • 17. PBMC+LPS (5 ug/ml)+YY-101 1 uM • 18. PBMC+LPS (5 ug/ml)+YY-101 0.1 uM • 19. PBMC+LPS (5 ug/ml)+YY-101 0.01 uM • 20. PBMC+LPS (5 ug/ml)+YY-101 0.001 uM • 21. PBMC+LPS (5 ug/ml)+YDE-011 100 uM • 22. PBMC+LPS (5 ug/ml)+YDE-011 10 uM • 23. PBMC+LPS (5 ug/ml)+YDE-011 1 uM • 24. PBMC+LPS (5 ug/ml)+YDE-011 0.1 uM • 25. PBMC+LPS (5 ug/ml)+YDE-011 0.01 uM • 26. PBMC+LPS (5 ug/ml)+YDE-011 0.001 uM • 27. PBMC+LPS (5 ug/ml)+YDE-043 100 uM • 28. PBMC+LPS (5 ug/ml)+YDE-043 10 uM • 29. PBMC+LPS (5 ug/ml)+YDE-043 1 uM • 30. PBMC+LPS (5 ug/ml)+YDE-043 0.1 uM • 31. PBMC+LPS (5 ug/ml)+YDE-043 0.01 uM • 32. PBMC+LPS (5 ug/ml)+YDE-043 0.001 uM
(§3) Multiplex assay was used to measure 30 cytokines and chemokines. The 1:2, 1:10 and 1:200 diluted cell supernatant and serial dilution of the standard were dispensed into a 96 well plate at 50 ul/well. Then, the pre-mixed cocktail of antibody-coated magnetic beads was dispensed at 50 ul/well and incubated at room temperature for 2 h in a horizontal orbital microplate shaker at 800±500 rpm. The beads were washed using a magnetic device to prevent loss. The biotin-antibody was dispensed in 50 ul of each well and incubated at room temperature for 1 h in a shaker at 800±500 rpm. After washing, streptavidin-PE was added at 50 ul/well and incubated at room temperature for 30 min in a shaker under the same conditions. Finally, after washing, wash buffer (100 ul/well) was added to the plate and incubated in a shaker for 2 min. The Luminex™ 200 setting were set according to the manufacturer's protocol. The data was calculated with a standard five-parameter logistic nonlinear regression analysis of the data (xPonent software 4.2, USA). The levels of cytokine/chemokine are normalized to the live cell counts (1×10^5 cells/mL) and presented as concentrations per mL (pg/mL or ng/mL).

MMP-9 = assay: Example 9 Luminex, LPS hPBMCs: MMP-9; type: cell-based, human
Experimental: as §1, §2, §3

[1] = PBMC + LPS(5 ug/ml) + test article 0.001 uM, Mean
[2] = PBMC + LPS(5 ug/ml) + test article 0.001 uM, individual replicates (1st, 2nd, 3rd)
[3] = PBMC + LPS(5 ug/ml) + test article 0.01 uM, Mean
[4] = PBMC + LPS(5 ug/ml) + test article 0.01 uM, individual replicates (1st, 2nd, 3rd)
[5] = PBMC + LPS(5 ug/ml) + test article 0.1 uM, Mean
[6] = PBMC + LPS(5 ug/ml) + test article 0.1 uM, individual replicates (1st, 2nd, 3rd)
[7] = PBMC + LPS(5 ug/ml) + test article 1 uM, Mean
[8] = PBMC + LPS(5 ug/ml) + test article 1 uM, individual replicates (1st, 2nd, 3rd)
[9] = PBMC + LPS(5 ug/ml) + test article 10 uM, Mean
[10] = PBMC + LPS(5 ug/ml) + test article 10 uM, individual replicates (1st, 2nd, 3rd)
[11] = PBMC + LPS(5 ug/ml) + test article 100 uM, Mean
[12] = PBMC + LPS(5 ug/ml) + test article 100 uM, individual replicates (1st, 2nd, 3rd)
[13] = PBMC + LPS(5 ug/ml) + 0.001 uM, Mean
[14] = PBMC + LPS(5 ug/ml) + 0.001 uM, single replicates
[15] = PBMC + LPS(5 ug/ml) + 0.01 uM, Mean
[16] = PBMC + LPS(5 ug/ml) + 0.01 uM, single replicates
[17] = PBMC + LPS(5 ug/ml) + 0.1 uM, Mean
[18] = PBMC + LPS(5 ug/ml) + 0.1 uM, single replicates
[19] = PBMC + LPS(5 ug/ml) + 1 uM, Mean
[20] = PBMC + LPS(5 ug/ml) + 1 uM, single replicates
[21] = PBMC + LPS(5 ug/ml) + 10 uM, Mean
[22] = PBMC + LPS(5 ug/ml) + 10 uM, single replicates
[23] = PBMC + LPS(5 ug/ml) + 100 uM, Mean
[24] = PBMC + LPS(5 ug/ml) + 100 uM, single replicates

CC(C)C[C@H](NC(=O)[C@H](CCC(N)=O)NC(=O)CNC(=O)[C@@H]1C[C@@H](O)CN1)C(=O)NCC(=O)O [YDE-043] (H-[Hyp]GQLG-OH; N-terminus and C-terminus assumed)
TNF-alpha Concentration (TNF-alpha; [1]): 1325.0 pg/mL | TNF-alpha conc/live cell (TNF-alpha; [1]): 268.4 pg/10^5 | TNF-alpha Concentration (TNF-alpha; [2]): 1248.3 pg/mL and 1405.1 pg/mL and 1321.4 pg/mL | TNF-alpha conc/live cell (TNF-alpha; [2]): 283.7 pg/10^5 and 234.2 pg/10^5 and 287.3 pg/10^5 | TNF-alpha Concentration (TNF-alpha; [3]): 1327.4 pg/mL | TNF-alpha conc/live cell (TNF-alpha; [3]): 253.6 pg/10^5 | TNF-alpha Concentration (TNF-alpha; [4]): 1282.6 pg/mL and 1322.9 pg/mL and 1376.7 pg/mL | TNF-alpha conc/live cell (TNF-alpha; [4]): 285.0 pg/10^5 and 200.4 pg/10^5 and 275.3 pg/10^5 | TNF-alpha Concentration (TNF-alpha; [5]): 1319.0 pg/mL | TNF-alpha conc/live cell (TNF-alpha; [5]): 244.5 pg/10^5 | TNF-alpha Concentration (TNF-alpha; [6]): 1254.3 pg/mL and 1333.4 pg/mL and 1369.2 pg/mL | TNF-alpha conc/live cell (TNF-alpha; [6]): 250.9 pg/10^5 and 238.1 pg/10^5 and 244.5 pg/10^5 | TNF-alpha Concentration (TNF-alpha; [7]): 1260.8 pg/mL | TNF-alpha conc/live cell (TNF-alpha; [7]): 238.1 pg/10^5 | TNF-alpha Concentration (TNF-alpha; [8]): 1330.4 pg/mL and 1136.7 pg/mL and 1315.4 pg/mL | TNF-alpha conc/live cell (TNF-alpha; [8]): 229.4 pg/10^5 and 236.8 pg/10^5 and 248.2 pg/10^5 | TNF-alpha Concentration (TNF-alpha; [9]): 1247.9 pg/mL | TNF-alpha conc/live cell (TNF-alpha; [9]): 231.0 pg/10^5 | TNF-alpha Concentration (TNF-alpha; [10]): 1175.4 pg/mL and 1249.8 pg/mL and 1318.4 pg/mL | TNF-alpha conc/live cell (TNF-alpha; [10]): 226.0 pg/10^5 and 231.4 pg/10^5 and 235.4 pg/10^5 | TNF-alpha Concentration (TNF-alpha; [11]): 901.5 pg/mL | TNF-alpha conc/live cell (TNF-alpha; [11]): 143.3 pg/10^5 | TNF-alpha Concentration (TNF-alpha; [12]): 956.0 pg/mL and 847.0 pg/mL | TNF-alpha conc/live cell (TNF-alpha; [12]): 154.2 pg/10^5 and 132.4 pg/10^5 | MMP-9 Concentration (MMP-9; [13]): 222.6 pg/mL | MMP-9 conc/live cell (MMP-9; [13]): 45.0 pg/10^5 | MMP-9 Concentration (MMP-9; [14]): 170.9 pg/mL and 234.0 pg/mL and 262.8 pg/mL | MMP-9 conc/live cell (MMP-9; [14]): 38.8 pg/10^5 and 39.0 pg/10^5 and 57.1 pg/10^5 | MMP-9 Concentration (MMP-9; [15]): 186.3 pg/mL | MMP-9 conc/live cell (MMP-9; [15]): 35.6 pg/10^5 | MMP-9 Concentration (MMP-9; [16]): 180.2 pg/mL and 186.3 pg/mL and 192.4 pg/mL | MMP-9 conc/live cell (MMP-9; [16]): 40.0 pg/10^5 and 28.2 pg/10^5 and 38.5 pg/10^5 | MMP-9 Concentration (MMP-9; [17]): 173.9 pg/mL | MMP-9 conc/live cell (MMP-9; [17]): 32.4 pg/10^5 | MMP-9 Concentration (MMP-9; [18]): 192.4 pg/mL and 155.2 pg/mL and 174.0 pg/mL | MMP-9 conc/live cell (MMP-9; [18]): 38.5 pg/10^5 and 27.7 pg/10^5 and 31.1 pg/10^5 | MMP-9 Concentration (MMP-9; [19]): 178.0 pg/mL | MMP-9 conc/live cell (MMP-9; [19]): 33.5 pg/10^5 | MMP-9 Concentration (MMP-9; [20]): 198.5 pg/mL and 155.2 pg/mL and 180.2 pg/mL | MMP-9 conc/live cell (MMP-9; [20]): 34.2 pg/10^5 and 32.3 pg/10^5 and 34.0 pg/10^5 | MMP-9 Concentration (MMP-9; [21]): 189.3 pg/mL | MMP-9 conc/live cell (MMP-9; [21]): 35.1 pg/10^5 | MMP-9 Concentration (MMP-9; [22]): 198.5 pg/mL and 192.4 pg/mL and 177.1 pg/mL | MMP-9 conc/live cell (MMP-9; [22]): 38.2 pg/10^5 and 35.6 pg/10^5 and 31.6 pg/10^5 | MMP-9 Concentration (MMP-9; [23]): 139.0 pg/mL | MMP-9 conc/live cell (MMP-9; [23]): 22.1 pg/10^5 | MMP-9 Concentration (MMP-9; [24]): 148.8 pg/mL and 129.2 pg/mL | MMP-9 conc/live cell (MMP-9; [24]): 24.0 pg/10^5 and 20.2 pg/10^5
